Laboratory results taken from the CheMixHub ionic liquid set.

Experiment: xn = mol fraction of the nth substance listed
Conditions: 100 kPa; for electrical conductivity: frequency 0.001 MHz

CCCC[N+](CCCC)(CCCC)Cc1ccccc1.[Cl-] + NC(=O)CC[C@H](N)C(=O)O + O
Conditions	electrical conductivity, 293.15 K [S/m]	electrical conductivity, 298.15 K [S/m]	electrical conductivity, 303.15 K [S/m]	electrical conductivity, 308.15 K [S/m]	electrical conductivity, 313.15 K [S/m]	viscosity, 293.15 K [mPa·s]	viscosity, 298.15 K [mPa·s]	viscosity, 303.15 K [mPa·s]	viscosity, 308.15 K [mPa·s]	viscosity, 313.15 K [mPa·s]
x2 = 0.0001802, x1 = 1.802e-05	0.0331	0.0352	0.0382	0.041	0.0452	0.961	0.921	0.884	–	–
x2 = 0.0001803, x1 = 5.405e-05	0.0419	0.0441	0.0463	0.0496	0.0536	0.969	0.929	0.888	–	–
x2 = 0.0001804, x1 = 9.008e-05	0.0513	0.0542	0.0582	0.0612	0.0654	0.98	0.939	0.9	–	–
x2 = 0.0004504, x1 = 1.801e-05	0.0408	0.0453	0.0486	0.0523	0.0553	0.969	0.93	0.893	0.858	0.803
x2 = 0.0004507, x1 = 5.403e-05	0.0492	0.0543	0.057	0.0597	0.0642	0.978	0.938	0.896	0.863	0.808
x2 = 0.000451, x1 = 9.005e-05	0.0592	0.0641	0.067	0.069	0.0728	0.99	0.949	0.909	0.869	0.817
x2 = 0.0007205, x1 = 1.801e-05	0.0479	0.0557	0.0582	0.0614	0.0662	0.977	0.939	0.902	0.867	0.812
x2 = 0.0007209, x1 = 5.402e-05	0.0619	0.0683	0.0702	0.0724	0.0764	0.987	0.947	0.906	0.872	0.818
x2 = 0.0007213, x1 = 9.003e-05	0.0692	0.0768	0.0774	0.0796	0.0867	1	0.96	0.919	0.88	0.827
x2 = 0.0009904, x1 = 1.8e-05	0.0551	0.064	0.0692	0.071	0.0769	0.985	0.948	0.912	0.877	0.823
x2 = 0.000991, x1 = 5.4e-05	0.0713	0.0784	0.0819	0.0821	0.0806	0.996	0.957	0.917	0.882	0.827
x2 = 0.0009916, x1 = 9e-05	0.0768	0.0871	0.0876	0.0906	0.1	1.01	0.97	0.929	0.891	0.838
x2 = 0.00126, x1 = 1.8e-05	0.0646	0.0756	0.079	0.0819	0.0865	0.994	0.956	0.921	0.887	0.833
x2 = 0.001261, x1 = 5.399e-05	0.0809	0.0902	0.0923	0.0943	0.103	1.005	0.967	0.926	0.894	0.838
x2 = 0.001262, x1 = 8.998e-05	0.0911	0.098	0.0989	0.101	0.113	1.021	0.98	0.939	0.901	0.849
x2 = 0.00153, x1 = 1.799e-05	0.0733	0.0847	0.0896	0.0903	0.0994	1.002	0.965	0.929	0.897	0.843
x2 = 0.001531, x1 = 5.397e-05	0.0868	0.0975	0.103	0.105	0.116	1.014	0.977	0.936	0.904	0.849
x2 = 0.001532, x1 = 8.995e-05	0.099	0.106	0.108	0.109	0.119	1.029	0.99	0.95	0.912	0.86
